# Measurements published in PMC5116409 (Nanomedicine : nanotechnology, biology, and medicine, 2016).
# Legend:
# [1] = biological target: T1, HIV-1 reverse transcriptase K103N+Y181C (Human immunodeficiency virus type 1 group M subtype B, UniProt P03366, K702N/Y780C); assay: DNA-dependent DNA polymerization by recombinant HIV-1 RT; type: biochemical; settings: From DMSO stock solution
# [2] = biological target: T2, HIV-1 reverse transcriptase G190A (Human immunodeficiency virus type 1 group M subtype B, UniProt P03366, G789A); assay: RNA-dependent DNA polymerization by recombinant HIV-1 RT; type: biochemical
# [3] = biological target: T2, HIV-1 reverse transcriptase G190A; assay: DNA-dependent DNA polymerization by recombinant HIV-1 RT; type: biochemical
# [4] = biological target: T3, HIV-1 reverse transcriptase Y181C (Human immunodeficiency virus type 1 group M subtype B, UniProt P03366, Y780C); assay: as above; type: biochemical
# [5] = biological target: T4, HIV-1 reverse transcriptase L100I (Human immunodeficiency virus type 1 group M subtype B, UniProt P03366, L699I); assay: RNA-dependent DNA polymerization by recombinant HIV-1 RT; type: biochemical
# [6] = biological target: T5, HIV-1 reverse transcriptase K103N (Human immunodeficiency virus type 1 group M subtype B, UniProt P03366, K702N); assay: DNA-dependent DNA polymerization by recombinant HIV-1 RT; type: biochemical
# [7] = biological target: T4, HIV-1 reverse transcriptase L100I; assay: as above; type: biochemical
# [8] = toxicity to cells, WST-1 test; type: cell-based; settings: human
# [9] = biological target: T3, HIV-1 reverse transcriptase Y181C; assay: RNA-dependent DNA polymerization by recombinant HIV-1 RT; type: biochemical
# [10] = biological target: T6, HIV-1 reverse transcriptase Wild type (Human immunodeficiency virus type 1 group M subtype B, UniProt P03366); assay: DNA-dependent DNA polymerization by recombinant HIV-1 RT; type: biochemical; settings: From DMSO stock solution
# [11] = biological target: T6, HIV-1 reverse transcriptase Wild type; assay: biochemical; settings: RNA-dependent DNA polymerization, IC50, Wild type RT; From DMSO stock solution
# [12] = biological target: T7, HIV-1 reverse transcriptase V106A (Human immunodeficiency virus type 1 group M subtype B, UniProt P03366, V705A); assay: DNA-dependent DNA polymerization by recombinant HIV-1 RT; type: biochemical
# [13] = biological target: T7, HIV-1 reverse transcriptase V106A; assay: RNA-dependent DNA polymerization by recombinant HIV-1 RT; type: biochemical
# [14] = biological target: T5, HIV-1 reverse transcriptase K103N; assay: as above; type: biochemical
# [15] = biological target: T1, HIV-1 reverse transcriptase K103N+Y181C; assay: as above; type: biochemical; settings: From DMSO stock solution
SMILES,IC50 [1] [µM],IC50 ([2]; Complex with HC-PGC (M5P21OL)) [µM],IC50 ([2]; From DMSO stock solution) [µM],IC50 ([3]; Complex with HC-PGC (M5P21OL)) [µM],IC50 ([3]; From DMSO stock solution) [µM],IC50 ([4]; Complex with HC-PGC (M5P21OL)) [µM],IC50 ([4]; From DMSO stock solution) [µM],IC50 ([5]; Complex with HC-PGC (M5P21OL)) [µM],IC50 ([5]; From DMSO stock solution) [µM],IC50 ([6]; Complex with HC-PGC (M5P21OL)) [µM],IC50 ([6]; From DMSO stock solution) [µM],IC50 ([7]; Complex with HC-PGC (M5P21OL)) [µM],IC50 ([7]; From DMSO stock solution) [µM],CC50 at 4 h [8] [µM],IC50 ([9]; Complex with HC-PGC (M5P21OL)) [µM],IC50 ([9]; From DMSO stock solution) [µM],IC50 [10] [µM],IC50 [11] [µM],IC50 [12] [µM],IC50 [13] [µM],further results
"Cc1cc(C)cc(C(=O)c2cc(C)ccc2OCCn2ccc(=O)[nH]c2=O)c1 [Z007, 1-(2-(2-(3,5-dimethylbenzoyl)-4-methylphenoxy)ethyl)pyrimidine-2,4(1H,3H)-dione]",> 100,> 100,> 100,> 100,> 100,> 100,> 100,> 100,100 ± 30,> 100,> 100,> 100,> 100,> 50,> 100,> 100,40 ± 10,50 ± 20,> 100,> 100,IC50 ([14]; Complex with HC-PGC (M5P21OL)): > 100 µM; IC50 ([14]; From DMSO stock solution): > 100 µM; IC50 [15]: > 100 µM
"O=C(c1cc(Cl)cc(Cl)c1)c1cc(Br)ccc1OCCn1ccc(=O)[nH]c1=O [Z011, 1-(2-(4-bromo-2-(3,5-dichlorobenzoyl)phenoxy)ethyl)pyrimidine-2,4(1H,3H)-dione]",10 ± 3,–,–,2.6 ± 0.7,1.6 ± 0.3,22 ± 5,1.4 ± 0.5,–,–,> 100,6 ± 1,> 100,1.8 ± 0.6,> 50,–,–,0.7 ± 0.1,–,> 100,–,–
"Cc1cc(C)cc(C(=O)c2cc(Cl)ccc2OCCn2c3c(c(=O)[nH]c2=O)CCC3)c1 [Z107, 1-(2-(4-chloro-2-(3,5-dimethylbenzoyl)phenoxy)ethyl)-1,5,6,7-tetrahydro-2H-cyclopenta[d]pyrimidine-2,4(3H)-dione]",50 ± 20,70 ± 20,35 ± 10,0.9 ± 0.3,45 ± 15,1.9 ± 0.5,6 ± 2,15 ± 4,10 ± 3,95 ± 15,70 ± 2,1.5 ± 0.2,3 ± 1,> 50,40 ± 10,5 ± 2,0.7 ± 0.2,3 ± 1,> 100,> 100,IC50 ([14]; Complex with HC-PGC (M5P21OL)): 100 ± 30 µM; IC50 ([14]; From DMSO stock solution): 40 ± 10 µM; IC50 [15]: 80 ± 30 µM
